{"source": "the NIST ThermoML archive (doi:10.1021/je3013205)", "settings": "101 kPa, Liquid, Vibrating tube method", "note": "Numbers after ± are expanded uncertainties.", "data": [{"compound": "CC(C)O", "note": "[propan-2-ol]", "values": [{"measurement": "mass density", "setting": "283.15 K", "result": "794.005 ± 0.12", "unit": "kg/m3"}, {"measurement": "mass density", "setting": "293.15 K", "result": "785.764 ± 0.13", "unit": "kg/m3"}, {"measurement": "mass density", "setting": "303.15 K", "result": "777.284 ± 0.13", "unit": "kg/m3"}, {"measurement": "mass density", "setting": "313.15 K", "result": "768.476 ± 0.13", "unit": "kg/m3"}, {"measurement": "mass density", "setting": "323.15 K", "result": "759.309 ± 0.14", "unit": "kg/m3"}, {"measurement": "mass density", "setting": "333.15 K", "result": "749.679 ± 0.14", "unit": "kg/m3"}, {"measurement": "mass density", "setting": "343.15 K", "result": "739.528 ± 0.14", "unit": "kg/m3"}]}, {"compound": "NCCOCCO", "note": "[2-(2-aminoethoxy)ethanol]", "values": [{"measurement": "mass density", "setting": "283.15 K", "result": "1063.9 ± 0.97", "unit": "kg/m3"}, {"measurement": "mass density", "setting": "293.15 K", "result": "1055.86 ± 0.95", "unit": "kg/m3"}, {"measurement": "mass density", "setting": "303.15 K", "result": "1047.8 ± 0.94", "unit": "kg/m3"}, {"measurement": "mass density", "setting": "313.15 K", "result": "1039.73 ± 0.92", "unit": "kg/m3"}, {"measurement": "mass density", "setting": "323.15 K", "result": "1031.63 ± 0.9", "unit": "kg/m3"}, {"measurement": "mass density", "setting": "333.15 K", "result": "1023.46 ± 0.89", "unit": "kg/m3"}, {"measurement": "mass density", "setting": "343.15 K", "result": "1015.24 ± 0.87", "unit": "kg/m3"}]}, {"compound": "NCCO", "note": "[2-aminoethan-1-ol]", "values": [{"measurement": "mass density", "setting": "283.15 K", "result": "1024.11 ± 0.25", "unit": "kg/m3"}, {"measurement": "mass density", "setting": "293.15 K", "result": "1016.23 ± 0.24", "unit": "kg/m3"}, {"measurement": "mass density", "setting": "303.15 K", "result": "1008.32 ± 0.24", "unit": "kg/m3"}, {"measurement": "mass density", "setting": "313.15 K", "result": "1000.37 ± 0.23", "unit": "kg/m3"}, {"measurement": "mass density", "setting": "323.15 K", "result": "992.364 ± 0.23", "unit": "kg/m3"}, {"measurement": "mass density", "setting": "333.15 K", "result": "984.301 ± 0.23", "unit": "kg/m3"}, {"measurement": "mass density", "setting": "343.15 K", "result": "976.153 ± 0.23", "unit": "kg/m3"}]}, {"compound": "CO", "note": "[methanol]", "values": [{"measurement": "mass density", "setting": "283.15 K", "result": "801.254 ± 0.14", "unit": "kg/m3"}, {"measurement": "mass density", "setting": "293.15 K", "result": "791.866 ± 0.14", "unit": "kg/m3"}, {"measurement": "mass density", "setting": "303.15 K", "result": "782.43 ± 0.15", "unit": "kg/m3"}, {"measurement": "mass density", "setting": "313.15 K", "result": "772.902 ± 0.15", "unit": "kg/m3"}, {"measurement": "mass density", "setting": "323.15 K", "result": "763.244 ± 0.15", "unit": "kg/m3"}, {"measurement": "mass density", "setting": "333.15 K", "result": "753.389 ± 0.16", "unit": "kg/m3"}]}, {"compound": "OCCO", "note": "[1,2-ethanediol]", "values": [{"measurement": "mass density", "setting": "283.15 K", "result": "1119.29 ± 0.33", "unit": "kg/m3"}, {"measurement": "mass density", "setting": "293.15 K", "result": "1112.37 ± 0.32", "unit": "kg/m3"}, {"measurement": "mass density", "setting": "303.15 K", "result": "1105.39 ± 0.31", "unit": "kg/m3"}, {"measurement": "mass density", "setting": "313.15 K", "result": "1098.34 ± 0.31", "unit": "kg/m3"}, {"measurement": "mass density", "setting": "323.15 K", "result": "1091.21 ± 0.3", "unit": "kg/m3"}, {"measurement": "mass density", "setting": "333.15 K", "result": "1083.99 ± 0.3", "unit": "kg/m3"}, {"measurement": "mass density", "setting": "343.15 K", "result": "1076.65 ± 0.29", "unit": "kg/m3"}]}]}
